Experimental data as given in article PMC4205289, “Triptolide inhibits human immunodeficiency virus type 1 replication by promoting proteasomal degradation of Tat protein” (Retrovirology, 2014).
pEC50: −log10 of the molar value. Where two headings read alike, the source gives them in different places.

Key:
Type in all cases: cell-based
[1] = tested on: HIV-1-Luc; assay: microbe, parasite or virus in culture
Experimental: In the antiviral assay with the HIV-1 reporter virus, Jurkat cells were seeded at a density of 2 × 10^4 cells per well in 96-well tissue culture plates and infected with HIV-1-Luc at an MOI of 0.5 in the presence or absence of the test compounds. At 48 h post-infection, luciferase activity in the cells was determined and EC50 values were calculated as described above.

[2] = tested on: HIV-1 NL4-3; assay: PBMC antiviral assay, p24 ELISA; details: for pEC50: Human immunodeficiency virus 1, NL43, PBMC, 144 h, p24, day 6 post-infection; for selectivity ratio at 6 days: human, read-out: SI (selective index, CC50/EC50)
Experimental: In the antiviral assay using PBMCs, determination of the anti-HIV-1 activity of a particular compound was based on the inhibition of HIV-1 capsid protein (p24) production. After isolation, PBMCs were stimulated with phytohemagglutinin (2 μg/ml, Sigma-Aldrich) and interleukin-2 (20 U/mL, Sigma-Aldrich) in RPMI 1640 complete medium for three days and were then maintained with interleukin-2 during viral infection. PBMCs were infected with HIV-1 NL4-3 (MOI = 0.01). After viral adsorption for 2 h, the cells were washed thoroughly with culture medium to remove unabsorbed viral particles. The infected cells (2 × 10^5 cells/well) were cultured in 96-well plates in the presence of or absence of the test compound. At two, four, six, and eight days post-infection, half of the culture supernatant was collected and replaced with fresh medium containing the test compounds. The level of viral replication was determined with an HIV-1 p24 antigen capture enzyme-linked immunosorbent assay (ELISA).

[3] = tested on: HIV-1 LAI; assay: PBMC antiviral assay, p24 ELISA; details: for pEC50: Human immunodeficiency virus 1, PBMC, 144 h, p24, day 6 post-infection; for selectivity ratio at 6 days: human, read-out: SI (selective index, CC50/EC50)
[4] = tested on: HIV-1 NL4-3; assay: Time-of-addition experiment in TZM-bl cells; details: triptolide at 5 nM, luciferase at 48 h
Experimental: TZM-bl cells seeded in 96-well plates (2 × 10^4 /well) were infected with HIV-1 NL4-3 (MOI = 1). The virus inoculum was removed after 1 h of infection. Test compounds were added at different time points after infection (0 h, 2 h, 4 h, 6 h, 8 h, and 10 h). Dextran sulfate was added at 10 μg/mL, zidovudine at 1 μM and triptolide at 5 nM. At 48 h post-infection, the virus replication level was determined by analyzing luciferase activity in the cells as described above.

[5] = tested on: basal HIV-1 LTR transcription; assay: Basal LTR transcription activity in TZM-bl and Jurkat cells; details: tested concentrations (data not shown)
Experimental: The effect of the test compounds on HIV-1 LTR promoter activity was evaluated using the luciferase reporter systems in both TZM-bl and Jurkat cells. TZM-bl cells seeded in 96-well plates (2 × 10^4 cells/well) were treated with either 10 ng/mL TNF-α (Sigma-Aldrich) or co-transfected with pEF1-Tat and pRL-TK (for transfection efficiency normalization) using Lipofectamine 2000 (Invitrogen). The cells were then cultured in the presence of various concentrations of the test compounds. After 24 h (TNF-α stimulation) or 48 h (Tat transfection) of incubation, luciferase activity was determined from cell lysates using the StedyGlo reagent (for TNF-α treated cells) or a dual luciferase assay system (Promega, for transfected cells) as recommended by the manufacturer.
Jurkat cells were seeded in 24-well plates at a density of 2 × 10^5 cells per well. For TNF-α induction, cells were co-transfected with pLTR-Luc and pRL-TK in the presence or absence of the test compounds. Then, the cells were treated with 10 ng/mL TNF-α 36 h post-transfection. After induction for an additional 12 h, luciferase activity was analyzed. For Tat-induced LTR activation, Jurkat cells were co-transfected with pLTR-Luc (or pLTR-Luc-ΔkB), pEF1-Tat and pRL-TK, and cultured in the presence of various concentrations of test compounds for an additional 48 h before the determination of luciferase activity. […]

[6] = tested on: GFP; assay: Western blot of GFP expressed from pEF1-GFP in HeLa cells; details: 48 h
Experimental: (§1) Figure 5 Triptolide specifically reduces steady-state level of Tat protein. (A) HeLa cells were transfected with pEF1-FLAG-Tat in the presence of increasing concentrations of triptolide. Cells were harvested 48 h post-transfection, and protein expression levels were determined by Western blotting. (B) HeLa cells were transfected either with pEF1-GFP (left) or pEF1-Tat-GFP (right) in the presence of increasing concentrations of triptolide. Cells were harvested 48 h post-transfection, and protein expression levels were determined by Western blotting.
Cells were washed with phosphate buffered saline (PBS) and lysed with radio immunoprecipitation assay lysis buffer supplemented with complete mini protease inhibitor cocktail (Roche) at 4°C for 1 h. Proteins from cell lysates were separated by SDS-PAGE and transferred to polyvinylidene difluoride membranes. After overnight incubation with primary antibodies at 4°C, each blot was probed with horseradish peroxidase-conjugated secondary antibody. Immunoreactive signals were detected with an enhanced chemiluminescence substrate (Thermo Scientific) using an AlphaEaseH FC Imaging System (Alpha Innotech Corporation).

[7] = tested on: Tat-GFP fusion protein; assay: Western blot of Tat-GFP fusion proteins in HeLa cells; details: 48 h
Experimental: as §1
Figure 7 N-terminal domains are required for triptolide to reduce Tat steady-state levels. (A) Schematic diagram of domains of HIV-1 Tat. (B) The effects of triptolide on steady-state levels of Tat mutants. […] Cells were harvested 48 h post-transfection, and protein expression levels were determined by Western blotting. […] Cells were harvested 48 h post-transfection, and protein expression levels were determined by Western blotting. […] At 48 h post transfection, the nucleus and cytoplasm were fractionated using NE-PER nuclear and cytoplasmic extraction reagent, and protein expression levels were determined by Western blotting. […] Cells were harvested 48 h post-transfection, and protein expression levels were determined by Western blotting. […]

**Q.** How did the pEC50 ([1]; Human immunodeficiency virus 1, Jurkat, 48 h) turn out when CC(C)[C@]12O[C@H]1[C@@H]1O[C@]13[C@]1(O[C@H]1C[C@H]1C4=C(CC[C@@]13C)C(=O)OC4)[C@@H]2O [triptolide] was run?
**A.** 9.35

**Q.** What about the selectivity ratio at 48 h ([1]; human, HIV-1-Luc, Jurkat, read-out: SI (selective index, CC50/EC50)) of the same compound?
**A.** 30.9

**Q.** What about the pEC50 ([2]; HIV-1 NL4-3, PBMC donor A) of the same compound?
**A.** 8.96

**Q.** And the pEC50 ([2]; HIV-1 NL4-3, PBMC donor B)?
**A.** 9.05

**Q.** And the pEC50 ([2]; HIV-1 NL4-3, PBMC donor C)?
**A.** 8.89

**Q.** What about the selectivity ratio at 6 days ([2]; HIV-1 NL4-3, PBMC donor A) of the same compound?
**A.** 11.5

**Q.** And the selectivity ratio at 6 days ([2]; HIV-1 NL4-3, PBMC donor B)?
**A.** 17

**Q.** And the selectivity ratio at 6 days ([2]; HIV-1 NL4-3, PBMC donor C)?
**A.** 8.6

**Q.** What about the pEC50 ([3]; PBMC donor A) of the same compound?
**A.** 8.82

**Q.** And the pEC50 ([3]; PBMC donor B)?
**A.** 8.92

**Q.** And the pEC50 ([3]; PBMC donor C)?
**A.** 8.82

**Q.** And the selectivity ratio at 6 days ([3]; PBMC donor A)?
**A.** 8.4

**Q.** What about the selectivity ratio at 6 days ([3]; PBMC donor B) of the same compound?
**A.** 12.8

**Q.** And the selectivity ratio at 6 days ([3]; PBMC donor C)?
**A.** 7.5

**Q.** What about the “time post-infection to which addition could be postponed without losing activity” value [4] of the same compound?
**A.** up to 10 h

**Q.** And the “effect on basal LTR transcription activity” value [5]?
**A.** did not affect basal LTR transcription activity

**Q.** And the “expression level of GFP” value [6]?
**A.** not reduced

**Q.** What about the “activity on fusion protein of Tat basic domain with GFP (Tat49–57-GFP)” value ([7]; pEF1-Tat49–57-GFP) of the same compound?
**A.** not sufficient to mediate the susceptibility to triptolide

**Q.** And the “steady-state level of Tat-GFP” value ([7]; pEF1-Tat-GFP)?
**A.** reduced the steady-state levels of Tat-GFP dose-dependently
